Columns and labels:
Type in all cases: in vivo
Cyperus iria L. (CYPIR) = assay: Postemergence herbicidal mixtures for weed control in direct seeded rice (greenhouse, visual % injury)
[1] = system: Ipomoea hederacea (L.) JACQ. (IPOHE); assay: Postemergence herbicidal mixtures for weed control in direct seeded rice (greenhouse, visual % injury after 3 weeks)
[2] = system: Cyperus esculentus L. (CYPES); assay: Postemergence herbicidal mixtures for weed control in direct seeded rice (greenhouse, visual % injury)
[3] = system: bird's-eye speedwell (Veronica persica L; VERPE); assay: Postemergence herbicidal activity of mixtures in cereal crops (greenhouse, visual injury)
Description: (§1) The plants were grown for 7-36 days in a greenhouse with an approximate 14 hour photoperiod which was maintained at about 18° C. during the day and 17° C. during the night. Nutrients and water were added on a regular basis and supplemental lighting was provided with overhead metal halide 1000-Watt lamps as necessary. The plants were employed for testing when they reached the second or third true leaf stage.
(§2) Treatments consisted of compound (as listed in Tables 1 through 64) and a second cereal herbicide alone and in combination. […] Control plants were sprayed in the same manner with the solvent blank.
(§3) The treated plants and control plants were placed in a greenhouse as described above and watered by sub-irrigation to prevent wash-off of the test compounds. After 20-22 days, the condition of the test plants as compared with that of the control plants was determined visually and scored on a scale of 0 to 100 percent where 0 corresponds to no injury and 100 corresponds to complete kill.
(§4) The following equation was used to calculate the expected activity of mixtures containing two active ingredients, A and B: Expected=A+B−(A×B/100)

[4] = system: scented mayweed (Matricaria chamomila L; MATCH); assay: as above; settings: Matricaria, post-emergence, read-out: MATCH Ob
Description: as §1, §2, §3, §4

[5] = system: black mustard (Brassica nigra L; BRSNI); assay: as above; settings: Brassica, post-emergence, read-out: BRSNI Ob
Description: (§5) Seeds of the desired test plant species were planted in Sun Gro MetroMix® 306 planting mixture, which typically has a pH of 6.0 to 6.8 and an organic matter content of about 30 percent, in plastic pots with a surface area of 103.2 square centimeters (cm^2). When required to ensure good germination and healthy plants, a fungicide treatment and/or other chemical or physical treatment was applied. The plants were grown for 7-36 days in a greenhouse with an approximate 14 hour photoperiod which was maintained at about 18° C. during the day and 17° C. during the night. Nutrients and water were added on a regular basis and supplemental lighting was provided with overhead metal halide 1000-Watt lamps as necessary. The plants were employed for testing when they reached the second or third true leaf stage.
Treatments consisted of compound (as listed in Tables 1 through 64) and a second cereal herbicide alone and in combination. Weighed amounts of esters (methyl) or salts (TEA [triethylammonium], K [potassium]) of 4-amino-3-chloro -6-(4-chloro-2-fluoro-3-methoxyphenyl)pyridine-2-carboxylic acid (Compound A) or of 6-amino-5-chloro-2-(4-chloro-2-fluoro-3-methoxyphenyl)pyrimidine-4-carboxylic acid (Compound B), were placed in 25 milliliter (mL) glass vials and dissolved in a volume of 97:3 v/v acetone/DMSO to obtain 4.5 milligrams (mg) active ingredient (ai)/mL stock solutions. […] The concentrated stock solutions were diluted to 1.5 mg ai/mL with the addition of 2 volumes of an aqueous mixture containing acetone, water, isopropyl alcohol, DMSO, Agri-dex crop oil concentrate, and Triton® X-77 surfactant in a 64.7:26.0:6.7:2.0:0.7:0.01 v/v ratio. A dilution solution was prepared by mixing 1 volume of 97:3 v/v acetone/DMSO and 2 volumes of an aqueous mixture containing acetone, water, isopropyl alcohol, DMSO, Agri-dex crop oil concentrate, and Triton® X-77 surfactant in a 64.7:26.0:6.7:2.0:0.7:0.01 v/v ratio. Compound requirements are based upon a 12 mL application volume at a rate of 187 liters per hectare (L/ha). Spray solutions of the second cereal herbicide and experimental compound mixtures were prepared by adding the stock solutions to the appropriate amount of dilution solution to form 12 mL spray solution with active ingredients in two- and three-way combinations. Formulated compounds were applied to the plant material with an overhead Mandel track sprayer equipped with 8002E nozzles calibrated to deliver 187 L/ha over an application area of 0.503 square meters (m^2) at a spray height of 18 inches (43 cm) above average plant canopy. Control plants were sprayed in the same manner with the solvent blank.
as §3
(§6) Colby's equation was used to determine the herbicidal effects expected from the mixtures (Colby, S. R. 1967. Calculation of the synergistic and antagonistic response of herbicide combinations. Weeds 15:20-22.).
as §4

[6] = system: wild pansy (Viola tricolor L; VIOTR); assay: as above; settings: Viola tricolor, post-emergence, read-out: VIOTR Ob
Description: as §1, §2, §3, §4

[7] = system: Echinochloa species (ECHSS); assay: Herbicidal mixtures for weed control in transplanted paddy rice (in-water application, visual % injury after 3 weeks); settings: for % Injury ECHOR Ob: ECHOR = Echinocloa oryzoides
Description: Weed seeds or nutlets of the desired test plant species were planted in puddled soil (mud) prepared by mixing a non-sterilized mineral soil (28 percent silt, 18 percent clay, and 54 percent sand, with a pH of about 7.3 to 7.8 and an organic matter content of about 1.0 percent) and water at a ratio of 100 kilograms (kg) of soil to 19 L of water. The prepared mud was dispensed in 250 mL aliquots into 480 mL non-perforated plastic pots with a surface area of 91.6 square centimeters leaving a headspace of 3 centimeters in each pot. Rice seeds were planted in Sun Gro MetroMix® 306 planting mixture, which typically has a pH of 6.0 to 6.8 and an organic matter content of about 30 percent, in plastic plug trays. Seedlings at the second or third leaf stage of growth were transplanted into 650 mL of mud contained in 960 mL non-perforated plastic pots with a surface area of 91.6 cm^2 4 days prior to herbicide application. The paddy was created by filling the 3 centimeter headspace of the pots with water. When required to ensure good germination and healthy plants, a fungicide treatment and/or other chemical or physical treatment was applied. The plants were grown for 4-14 days in a greenhouse with an approximate 14 hr photoperiod which was maintained at about 29° C. during the day and 26° C. during the night. Nutrients were added as Osmocote (17:6:10, N:P:K+minor nutrients) at 2 g per cup. Water was added on a regular basis to maintain the paddy flood, and supplemental lighting was provided with overhead metal halide 1000-Watt lamps as necessary. The plants were employed for testing when they reached the second or third true leaf stage.
Treatments consisted of esters or salts of compound A, compound C, or compound D and various herbicidal components alone and in combination. For technical grade compounds, a weighed amount, determined by the highest rate to be tested, was placed in an individual 120 mL glass vial and was dissolved in 20 mL of acetone to obtain concentrated stock solutions. […] The concentrated stock solutions obtained were diluted with 20 mL of an aqueous mixture containing 2.5% Agri-dex crop oil concentrate (v/v). For formulated compounds, a measured amount, determined by the highest rate to be tested, was placed in an individual 120 mL glass vial and was dissolved in 20 mL of 2.5% (v/v) Agri-dex crop oil concentrate to obtain concentrated stock solutions. The concentrated stock solutions obtained were diluted with 20 mL of acetone. Applications were made by injecting an appropriate amount of the stock solution into the aqueous layer of the paddy. Control plants were treated in the same manner with the solvent blank. All treated plant material received the same concentration of acetone and crop oil concentrate.
Forms of compounds A, C, and D were applied on an acid equivalent basis. Other herbicidal components were applied on an active ingredient basis and included acetolactate synthase (ALS)-inhibiting herbicides penoxsulam (triazolopyrimidine chemical class) applied as Grasp SC, […] (sulfonylurea chemical class) applied as Sirius G, and bensulfuron-methyl (sulfonylurea chemical class) applied as Londax; acetyl CoA carboxylase (ACCase) inhibiting herbicides cyhalofop-butyl applied as Clincher G and fenoxaprop-p-ethyl applied as Ricestar HT; auxinic herbicide quinclorac applied as Facet 75 DF; phytoene desaturase inhibiting herbicide norflurazon; and p-hydroxyphenylpyruvate dioxygenase (HPPD) inhibiting herbicide sulcotrione applied as Mikado.
The treated plants and control plants were placed in a greenhouse as described above and water was added as needed to maintain a paddy flood. After 3 weeks the condition of the test plants as compared with that of the untreated plants was determined visually and scored on a scale of 0 to 100 percent where 0 corresponds to no injury and 100 corresponds to complete kill.

[8] = system: windgrass (Apera spica-venti L; APESV); assay: Postemergence herbicidal activity of mixtures in cereal crops (greenhouse, visual injury); settings: Apera spica-venti, post-emergence, read-out: APESV Ob
Description: as §5, with “When required to ensure good germination and healthy plants, a fungicide treatment and/or other chemical or physical treatment was applied.” left out
(§7) Treatments consisted of compound (as listed in Tables 1 through 64) and a second cereal herbicide alone and in combination. […] The concentrated stock solutions were diluted to 1.5 mg ai/mL with the addition of 2 volumes of an aqueous mixture containing acetone, water, isopropyl alcohol, DMSO, Agri-dex crop oil concentrate, and Triton® X-77 surfactant in a 64.7:26.0:6.7:2.0:0.7:0.01 v/v ratio. A dilution solution was prepared by mixing 1 volume of 97:3 v/v acetone/DMSO and 2 volumes of an aqueous mixture containing acetone, water, isopropyl alcohol, DMSO, Agri-dex crop oil concentrate, and Triton® X-77 surfactant in a 64.7:26.0:6.7:2.0:0.7:0.01 v/v ratio. Compound requirements are based upon a 12 mL application volume at a rate of 187 liters per hectare (L/ha). […] Formulated compounds were applied to the plant material with an overhead Mandel track sprayer equipped with 8002E nozzles calibrated to deliver 187 L/ha over an application area of 0.503 square meters (m^2) at a spray height of 18 inches […] above average plant canopy. Control plants were sprayed in the same manner with the solvent blank.
as §3, §6, §4

[9] = system: littleseed Canarygrass (Phalaris minor L; PHAMI); assay: as above
Description: as §5, with “When required to ensure good germination and healthy plants, a fungicide treatment and/or other chemical or physical treatment was applied.” left out
as §7, §3, §6, §4

[10] = system: annual ryegrass (Lolium multiflorum L; LOLMG); assay: as above; settings: 50 g/ha, Table 22
Description: as §5, with “When required to ensure good germination and healthy plants, a fungicide treatment and/or other chemical or physical treatment was applied.” left out
as §7, §3, §6, §4

[11] = system: blackgrass (Alopecurus myosuroides L; ALOMY); assay: Postemergence herbicidal activity of mixtures in cereal crops (greenhouse, visual injury 0-100 percent after 20-22 days)
Description: as §5, with “When required to ensure good germination and healthy plants, a fungicide treatment and/or other chemical or physical treatment was applied.” left out
as §7, §3, §6, §4

COc1cc(OC)nc(Oc2cccc(Oc3nc(OC)cc(OC)n3)c2C(=O)O)n1 [Bispyribac-sodium]
% Injury CYPIR Ob (Cyperus iria L. (CYPIR); alone 7 g/ha): 40%
% Injury CYPIR Ob (Cyperus iria L. (CYPIR); alone 14 g/ha): 90%
% Injury CYPIR Ob (Cyperus iria L. (CYPIR); alone 28 g/ha): 95%
% Injury IPOHE Ob ([1]; alone 7 g/ha): 10%
% Injury IPOHE Ob ([1]; alone 28 g/ha): 60%
% Injury CYPES Ob ([2]; alone 14 g/ha): 0%
% Injury CYPES Ob ([2]; alone 28 g/ha): 50%

COc1nc(C)nc(NC(=O)NS(=O)(=O)c2ccccc2Cl)n1 [Chlorsulfuron, 2-chloro-N-[[(4-methoxy-6-methyl-1,3,5-triazin-2-yl)amino]carbonyl]benzenesulfonamide, reference compound]
VERPE Ob ([3]; 2.2 g/ha, Table 28): 5%

CCOc1c(Cl)ccc(-c2cc(N)c(Cl)c(C(=O)OC)n2)c1F [Compound D Methyl]
% Injury CYPIR Ob (Cyperus iria L. (CYPIR); alone 8.75 g/ha): 50%
% Injury CYPIR Ob (Cyperus iria L. (CYPIR); alone 35 g/ha): 80%

COc1c(Cl)ccc(Cl)c1C(=O)O [Dicamba]
pest or weed control at 35 g/ha ([4]; 35 g/ha alone): 30%
pest or weed control at 35 g/ha ([3]; Veronica persica, post-emergence, 35 g/ha alone, read-out: VERPE Ob): 10%
pest or weed control at 35 g/ha ([5]; 35 g/ha alone): 50%

CC(Oc1ccc(Cl)cc1Cl)C(=O)O (stereo not drawn) [Dichlorprop]
pest or weed control at 140 g/ha ([4]; 140 g/ha alone): 10%
pest or weed control at 140 g/ha ([3]; Veronica persica, post-emergence, 140 g/ha alone, read-out: VERPE Ob): 20%

CCC(C)(CC)c1cc(NC(=O)c2c(OC)cccc2OC)on1 [Isoxaben]
pest or weed control at 31.25 g/ha ([6]; 31.25 g/ha alone): 3%
pest or weed control at 31.25 g/ha ([3]; Veronica persica, post-emergence, 31.25 g/ha alone, read-out: VERPE Ob): 0%

CSc1nnc(C(C)(C)C)c(=O)n1N [Metribuzin]
pest or weed control at 50 g/ha ([6]; 50 g/ha alone): 20%
pest or weed control at 50 g/ha ([3]; Veronica persica, post-emergence, 50 g/ha alone, read-out: VERPE Ob): 10%
pest or weed control at 50 g/ha ([5]; 50 g/ha alone): 50%

CCOC(=O)c1cnn(C)c1S(=O)(=O)NC(=O)Nc1nc(OC)cc(OC)n1 [Pyrazosulfuron-ethyl]
% Injury Ob ([7]; ECHCG, 5.25 g/ha alone): 20%

CS(=O)(=O)c1ccc(C(=O)C2C(=O)CCCC2=O)c(Cl)c1 [Sulcotrione]
% Injury ECHOR Ob ([7]; Sulcotrione 70 g/ha alone (Compound A Methyl half)): 10%
% Injury ECHOR Ob ([7]; Sulcotrione 70 g/ha alone (Compound A TEA half)): 10%

CCON=C(CC)C1=C(O)CC(c2c(C)cc(C)cc2C)CC1=O (stereo not drawn) [Tralkoxydim, 2-[1-(ethoxyimino)propyl]-3-hydroxy-5-(2,4,6-trimethylphenyl)-2-cyclohexen-1-one, reference compound]
pest or weed control at 50 g/ha [8]: 75%
PHAMI Ob ([9]; 25 g/ha, Table 6): 35%
PHAMI Ob ([9]; 50 g/ha, Table 6): 45%
PHAMI Ob ([9]; 50 g/ha, Table 22): 30%
LOLMG Ob [10]: 50%
ALOMY Ob ([11]; 25 g/ha, Table 6): 78%
ALOMY Ob ([11]; 50 g/ha, Table 6): 70%
ALOMY Ob ([11]; 50 g/ha, Table 22): 70%

CCN(CC)CC.O=C(O)COc1nc(Cl)c(Cl)cc1Cl [Triclopyr-TEA]
% Injury CYPES Ob ([2]; alone 140 g/ha): 0%
% Injury CYPES Ob ([2]; alone 280 g/ha): 0%

Reference: patent US10556865B2, “Synergistic herbicidal composition containing certain pyridine or pyrimidine carboxylic acids and certain cereal and rice herbicides” (Dow AgroSciences, LLC, priority 2007, dated 2020)
